This is an account of results in US20120083518A1, “Cancer Treatment Targeting BRCA1-IRIS” (priority 2010, published 2012).

One may read the pIC50 as −log10 of the IC50, conventionally taken in molar units. A higher pIC50 goes with a small IC50.

What all share (type): cell-based, human
Experiment [1] has as its system AKT1, AKT2 and survivin expression in OVCAR-5 cells. As to the kind of experiment: Immunoblot of AKT1, AKT2 and survivin. The note with it: OVCAR-5, cisplatin 35 μM 24 h alone. An excerpt:
(§1) Immunoblotting. […] Bcl-2 (clone 124; Dako Diagnostics AG), Bcl-xL (Transduction Laboratories), actin (Ab-1, CP01, Oncogene) and phospho-Survivin (T34, Novus Biologicals). Mouse antibody against BRCA1-IRIS was generated in our laboratory.
(§2) BRCA1-IRIS downregulation sensitizes ovarian cancer cell lines to cisplatin-induced survivin downregulation and cell death.
On the technique in general: Immunoblotting shows a protein as a band on a membrane.

The subject of experiment [2] is BRCA1-IRIS, AKT and survivin expression in SK-OV-3 cells. As to the kind of experiment: Immunoblot of BRCA1-IRIS, AKT, p-AKT and survivin. The note with it: SK-OV-3, cisplatin 35 μM 24 h alone. How it is done:
as §1
BRCA1-IRIS-induced survivin expression is partially AKT-dependent. AKT (siRNA silences AKT1 and AKT2), BRCA1-IRIS, survivin or AKT and BRCA1-IRIS were silenced in SK-OV-3 cells (endogenously overexpressing all proteins, see FIG. 1B) for 72 h. […] Survivin silencing had no effect on BRCA1-IRIS or AKTs the expression (FIG. 2G). Identical results were obtained using MCAS cell line.
(§3) BRCA1-IRIS overexpression-induced survivin expression is partially PI3′K/AKT-independent. To study this further, MCAS or SK-OV-3 cells were exposed to the PI3′K inhibitor, LY294002 for 24 h or were transfected with BRCA1-IRIS siRNA for 48 h before they were exposed to LY294002 and left for another 24 h. […] Indeed, LY294002 decreased survivin expression in HOSE/vector cells but had little effect in HOSE/IRIS cells (FIG. 3B).
as §2

The next experiment has as its system OVCAR-5 cells. As to the kind of experiment: MTT cell viability after cisplatin. The note with it: OVCAR-5, cisplatin 48 h. Here is the method: (§4) MTT and activated caspases 3 and 7 assays. Done using the Cell Titer 96® AQueous One Solution Cell Proliferation Assay (#G3580, Promega) Caspase-Glo 3/7 Assay (#G8091, Promega), respectively as per manufacturer's instructions. Measurements were obtained using optical at 490 nm. Each experiment was done in 8 samples and the whole experiment was repeated 3 separate times. […] As expected, low viability and high level of active caspase3/7 were detected in IGROV-1 (FIG. 5C), showing an IC50 of ˜5 μM.

Another experiment relates to IGROV-1 cells. As to the kind of experiment: MTT cell viability after cisplatin. The note with it: IGROV-1, cisplatin 48 h. Here is the method: as §4
A further experiment concerns MCAS cells. Nature of the experiment: MTT cell viability after cisplatin. The note with it: cisplatin 48 h. How it is done:
as §4

For the next experiment, the system named is SK-OV-3 cells. Nature of the experiment: MTT cell viability after cisplatin. The note with it: SK-OV-3, cisplatin 48 h. How it is done:
as §4

Experiment [3] has as its system BRCA1-IRIS, AKT and survivin expression in HOSE cells. Nature of the experiment: Immunoblot of BRCA1-IRIS, AKT and survivin after cisplatin. The note with it: 24 h.
Description: as §1
Ovarian cancer cells expressing high level of survivin usually are cisplatin-resistant.

The next experiment deals with HOSE/AKT3 cells. Nature of the experiment: MTT cell viability after cisplatin. The note with it: HOSE/AKT3, cisplatin 48 h. The text has this:
(§5) MTT and activated caspases 3 and 7 assays. Done using the Cell Titer 96® AQueous One Solution Cell Proliferation Assay (#G3580, Promega) Caspase-Glo 3/7 Assay (#G8091, Promega), respectively as per manufacturer's instructions. Measurements were obtained using optical at 490 nm. Each experiment was done in 8 samples and the whole experiment was repeated 3 separate times.

The next experiment has as its system HOSE/AKT2 cells. Nature of the experiment: MTT cell viability after cisplatin. The note with it: HOSE/AKT2, cisplatin 48 h.
Description: as §5

The test system of the next experiment is HOSE/IRIS cells. Nature of the experiment: MTT cell viability after cisplatin. The note with it: cisplatin 48 h.
Description: as §5

Another experiment has as its system HOSE/AKT1 cells. Nature of the experiment: MTT cell viability after cisplatin. The note with it: HOSE/AKT1, cisplatin 48 h.
Description: as §5

For a further experiment, the system named is HOSE/survivin cells. Nature of the experiment: MTT cell viability after cisplatin. The note with it: cisplatin 48 h.
Description: as §5

The subject of another experiment is HOSE/vector cells. Nature of the experiment: MTT cell viability after cisplatin. The note with it: cisplatin 48 h.
Description: as §5

In experiment [4] the test system is AKT and survivin expression in MCAS cells. Nature of the experiment: Immunoblot of AKT, p-AKT and survivin. The note with it: cisplatin 35 μM 24 h alone. How it is done:
as §1, §3, §2

SMILES strings stand for the structures. pIC50: −log10 of the molar value.

In the case of `N.N.[Cl][Pt][Cl]` [cisplatin], the “expression of AKT1, AKT2 and survivin” value in experiment [1], in experiment [2] and in experiment [4] was “modestly decreased” throughout. Also, the pIC50 was around 4.60 in the experiment on OVCAR-5 cells; around 5.30 with IGROV-1 cells; around 4.40 in the experiment with MCAS cells; around 4.40 in the experiment on SK-OV-3 cells; 4.70 to 4.82 in the experiment with HOSE/AKT3 cells; around 4.12 with HOSE/AKT2 cells. In addition, the pIC50 with HOSE/IRIS cells is around 4.12; in the experiment with HOSE/AKT1 cells, around 4.12; in the experiment with HOSE/survivin cells, around 4.12; in the experiment with HOSE/vector cells it was 4.70 to 4.82. In addition, the entries for the “BRCA1-IRIS, AKT and survivin expression” value in experiment [3] (high concentrations cisplatin (>50 μM)) and in experiment [3] (low concentrations cisplatin (≦50 μM)) were “abolished” and “triggered”, respectively.
